Consider 19 molecules from PubChem BioAssay AID330 (DTP/NCI, 2004).

Structures are written as SMILES. Where “and” joins values, the source holds several entries; their conditions need not be identical. Equal entries are not always repeated. Inconclusive results and toxic doses are left out.

The subject of the experiment is P388 leukemia ip, CD2F1 mice, survival T/C. The experiment can be described thus: NCI In Vivo Anticancer Drug Screen. Data for tumor model P388 Leukemia (intraperitoneal) in CD2F1 (CDF1) mice. As to conditions: endpoint: median survival time, higher = longer survival. A digest of the protocol: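 Mice carrying the transplanted tumor received test compound or vehicle. Survival was recorded in each group, and the value is the treated-group measurement divided by that of the vehicle-treated control group.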

Setting [1] is: dose: 25.0 mg/kg/injection, schedule: Q01DX009 (ip), vehicle: Klucel (hydroxypropylcellulose) (HPC).
Where [2] appears, read: dose: 50.0 mg/kg/injection, schedule: Q01DX005 (ip), vehicle: saline with Tween-80.
[3] abbreviates: dose: 50.0 mg/kg/injection, schedule: Q01DX009 (ip), vehicle: Klucel (hydroxypropylcellulose) (HPC).
[4] abbreviates: dose: 100.0 mg/kg/injection, schedule: Q01DX005 (ip), vehicle: saline with Tween-80.
[5] abbreviates: dose: 100.0 mg/kg/injection, schedule: Q01DX009 (ip), vehicle: Klucel (hydroxypropylcellulose) (HPC).
The mark [6] stands for this setting: dose: 200.0 mg/kg/injection, schedule: Q01DX005 (ip), vehicle: saline with Tween-80.
[7] abbreviates: dose: 200.0 mg/kg/injection, schedule: Q01DX009 (ip), vehicle: Klucel (hydroxypropylcellulose) (HPC).
The mark [8] stands for this setting: dose: 100.0 mg/kg/injection, schedule: Q01DX001 (ip), vehicle: saline with Tween-80.
Setting [9] is: dose: 100.0 mg/kg/injection, schedule: Q04DX003 (ip), vehicle: saline.
Setting [10] is: dose: 200.0 mg/kg/injection, schedule: Q04DX003 (ip), vehicle: saline.

For the molecule `CCCCCCCn1cnc2cc(N3CCOCC3)c([N+](=O)[O-])cc2c1=O`, the T/C was 102 % of control (dose: 100.0 mg/kg/injection, schedule: Q04DX003 (ip), vehicle: Klucel (hydroxypropylcellulose) (HPC)); 95 % of control (dose: 200.0 mg/kg/injection, schedule: Q04DX003 (ip), vehicle: Klucel (hydroxypropylcellulose) (HPC)); 100 % of control (dose: 400.0 mg/kg/injection, schedule: Q04DX003 (ip), vehicle: Klucel (hydroxypropylcellulose) (HPC)).

For the molecule `Cc1ccc2c(c1)C(C)(C)C(O)CC2(C)C` (stereo not given), the T/C by setting is: (dose: 50.0 mg/kg/injection, schedule: Q01DX005 (ip), vehicle: Klucel (hydroxypropylcellulose) (HPC)) 98 % of control; (dose: 100.0 mg/kg/injection, schedule: Q01DX005 (ip), vehicle: Klucel (hydroxypropylcellulose) (HPC)) 106 % of control; (dose: 200.0 mg/kg/injection, schedule: Q01DX005 (ip), vehicle: Klucel (hydroxypropylcellulose) (HPC)) 109 % of control.

For the molecule `CCOC(=O)C1C(=O)N2C(=O)C(NC(C)=O)=C(O)C2C1c1ccccc1` (stereo not given), the T/C (dose: 100.0 mg/kg/injection, schedule: Q04DX002 (ip), vehicle: saline with Tween-80) is 100 % of control; the T/C (dose: 200.0 mg/kg/injection, schedule: Q04DX002 (ip), vehicle: saline with Tween-80) was 99 % of control; the T/C (dose: 400.0 mg/kg/injection, schedule: Q04DX002 (ip), vehicle: saline with Tween-80) is 100 % of control.

In the case of `COc1cc(C[C@H]2c3cc(OC)c(OC)c(O)c3CCN2C)c(Oc2cc3c(cc2OC)-c2c(OC)c(OC)c(OC)c4c2C(C3)N(C)CC4)cc1OC` (stereo not given in full) (tested in a mixture with another compound), the T/C is, setting by setting: (dose: 8.75 mg/kg/injection, schedule: Q01DX005 (ip), vehicle: Klucel (hydroxypropylcellulose) (HPC)) 103 % of control; (dose: 17.5 mg/kg/injection, schedule: Q01DX005 (ip), vehicle: Klucel (hydroxypropylcellulose) (HPC)) 99 % of control; (dose: 35.0 mg/kg/injection, schedule: Q01DX005 (ip), vehicle: Klucel (hydroxypropylcellulose) (HPC)) 96 % of control; (dose: 70.0 mg/kg/injection, schedule: Q01DX005 (ip), vehicle: Klucel (hydroxypropylcellulose) (HPC)) 94 % of control.

`C=CCCc1cc(OC)ccc1C(=O)C(C)C`: the T/C was 100 % of control under setting [1]; 99 % of control under setting [2]; 104 % of control under setting [3]; 107 % of control under setting [4]; 102 % of control under setting [5]; 100 % of control under setting [6]. In addition, the T/C under setting [7] is 104 % of control.

Take `COc1ccc2c(C#N)cc3c(c[n+](C)c4ccccc34)c2c1`: the T/C (dose: 12.5 mg/kg/injection, schedule: Q04DX003 (ip), vehicle: distilled water + Tween-80) was 105 % of control and the T/C (dose: 25.0 mg/kg/injection, schedule: Q04DX003 (ip), vehicle: distilled water + Tween-80) was 115 % of control.

Regarding `CC1CCC[N-]C1.CC1CCC[N-]C1.CC1CCC[N-]C1.CC1CCC[N-]C1.[Cl][Rh][Cl]` (stereo not given), the T/C by setting is: (dose: 1.5 mg/kg/injection, schedule: Q01DX009 (ip), vehicle: saline) 122 % of control; (dose: 6.0 mg/kg/injection, schedule: Q01DX009 (ip), vehicle: saline) 152 % of control.

As to `O=S(=O)(Cc1ccccc1)C1CC1`, the T/C by setting is: (dose: 50.0 mg/kg/injection, schedule: Q01DX009 (ip), vehicle: saline) 122 % of control; (dose: 50.0 mg/kg/injection, schedule: Q01DX009 (ip), vehicle: suspension in saline) 104 % of control and 106 % of control; (dose: 100.0 mg/kg/injection, schedule: Q01DX009 (ip), vehicle: saline) 119 % of control; (dose: 100.0 mg/kg/injection, schedule: Q01DX009 (ip), vehicle: suspension in saline) 108 % of control and 94 % of control; (dose: 200.0 mg/kg/injection, schedule: Q01DX009 (ip), vehicle: saline) 118 % of control; (dose: 200.0 mg/kg/injection, schedule: Q01DX009 (ip), vehicle: suspension in saline) 102 % of control and 97 % of control. Moreover, the T/C runs as follows: (dose: 400.0 mg/kg/injection, schedule: Q01DX009 (ip), vehicle: saline) 102 % of control; (dose: 400.0 mg/kg/injection, schedule: Q01DX009 (ip), vehicle: suspension in saline) 100 % of control and 105 % of control.

Take `COc1ccc2c(c1OC)C(C(Cl)(Cl)Cl)N1CCc3cc4c(cc3C1=C2)OCO4` (stereo not given): the T/C is 93 % of control (dose: 50.0 mg/kg/injection, schedule: Q01DX009 (ip), vehicle: saline with Tween-80); 90 % of control (dose: 100.0 mg/kg/injection, schedule: Q01DX009 (ip), vehicle: saline with Tween-80); 92 % of control (dose: 200.0 mg/kg/injection, schedule: Q01DX009 (ip), vehicle: saline with Tween-80).

As to `COc1cc2c[n+]3ccccc3c(N)c2cc1OC`, the T/C (dose: 50.0 mg/kg/injection, schedule: Q04DX003 (ip), vehicle: distilled water + Tween-80) is 110 % of control; the T/C (dose: 100.0 mg/kg/injection, schedule: Q04DX003 (ip), vehicle: distilled water + Tween-80) was 106 % of control; the T/C (dose: 200.0 mg/kg/injection, schedule: Q04DX003 (ip), vehicle: distilled water + Tween-80) is 97 % of control.

Turning to `Cc1ccc2c(=O)[nH]cnc2c1`, the T/C by setting is: (dose: 12.5 mg/kg/injection, schedule: Q01DX009 (ip), vehicle: Klucel (hydroxypropylcellulose) (HPC)) 100 % of control; under setting [1], 98 % of control and 100 % of control; under setting [3], 99 % of control and 103 % of control; under setting [5], 101 % of control and 110 % of control and 97 % of control; under setting [7], 113 % of control.

With `O=C1OC2c3ccccc3C(=O)C2(c2ccccc2)O1` (stereo not given), the T/C by setting is: under setting [8], 97 % of control; under setting [4], 97 % of control; (dose: 200.0 mg/kg/injection, schedule: Q01DX001 (ip), vehicle: saline with Tween-80) 97 % of control; under setting [6], 97 % of control; (dose: 400.0 mg/kg/injection, schedule: Q01DX001 (ip), vehicle: saline with Tween-80) 96 % of control; (dose: 400.0 mg/kg/injection, schedule: Q01DX005 (ip), vehicle: saline with Tween-80) 96 % of control.

As to `Nc1cc(Cl)c(O)c(Cl)c1`, the T/C by setting is: (dose: 25.0 mg/kg/injection, schedule: Q01DX001 (ip), vehicle: saline with Tween-80) 100 % of control; (dose: 50.0 mg/kg/injection, schedule: Q01DX001 (ip), vehicle: saline with Tween-80) 95 % of control; under setting [8], 90 % of control.

Take `COc1cccc2c1C(=O)c1c(OC)c(C=O)cc(OC)c1C2=O`: the T/C by setting is: (dose: 50.0 mg/kg/injection, schedule: Q01DX009 (ip), vehicle: water) 99 % of control; (dose: 100.0 mg/kg/injection, schedule: Q01DX009 (ip), vehicle: water) 100 % of control; (dose: 200.0 mg/kg/injection, schedule: Q01DX009 (ip), vehicle: water) 98 % of control.

Regarding `Cc1ccc(S(=O)(=O)C2(NC(=O)C3CC3)CC2)cc1`, the T/C (dose: 60.0 mg/kg/injection, schedule: Q01DX005 (ip), vehicle: Klucel (hydroxypropylcellulose) (HPC)) is 89 % of control and the T/C (dose: 120.0 mg/kg/injection, schedule: Q01DX005 (ip), vehicle: Klucel (hydroxypropylcellulose) (HPC)) is 89 % of control.

In the case of `O=[N+]([O-])c1ccc([Se]c2ncccn2)c([N+](=O)[O-])c1`, the T/C was 104 % of control (dose: 25.0 mg/kg/injection, schedule: Q04DX003 (ip), vehicle: saline); 104 % of control (dose: 50.0 mg/kg/injection, schedule: Q04DX003 (ip), vehicle: saline); 100 % of control and 117 % of control under setting [9]; 100 % of control under setting [10].

For the molecule `O=C1C=CC(=O)N1Cc1ccco1`, the T/C is, setting by setting: under setting [9], 90 % of control; under setting [10], 95 % of control; (dose: 400.0 mg/kg/injection, schedule: Q04DX003 (ip), vehicle: saline) 95 % of control.

For the molecule `Cc1ccc(S(=O)(=O)N/N=C/c2cc(I)cc(I)c2O)cc1`, the T/C is 98 % of control under setting [2], 100 % of control under setting [4] and 100 % of control under setting [6].

In the case of `CC1(C)CC2(CC(C)(C)N1O)NC(=O)OC2=O`, the T/C runs as follows: (dose: 60.0 mg/kg/injection, schedule: Q01DX005 (ip), vehicle: saline with Tween-80) 97 % of control; (dose: 120.0 mg/kg/injection, schedule: Q01DX005 (ip), vehicle: saline with Tween-80) 97 % of control; (dose: 240.0 mg/kg/injection, schedule: Q01DX005 (ip), vehicle: saline with Tween-80) 106 % of control.
